Test results reported in US6403054B1, “Ternary ligand complexes useful as radiopharmaceuticals” (Bristol-Myers Squibb Pharma Company, priority 1997, dated 2002).

Experiment: Canine imaging and biodistribution model
Conditions: for route of excretion: i.v. infusion, gamma camera images and biodistribution
Method: A canine imaging and biodistribution model was used to evaluate the radiopharmaceuticals of Examples 5 and 7.
Adult beagle dogs of either sex (9-13 kg) were anesthetized with pentobarbital sodium (35 mg/kg,i.v.) and ventilated with room air via an endotracheal tube (12 strokes/min, 25 ml/kg). For arterial pressure determination, the right femoral artery was cannulated with a saline-filled polyethylene catheter (PE-240) and connected to a Statham pressure transducer (P23ID; Oxnard, Calif.). Mean arterial blood pressure was determined via damping the pulsatile pressure signal. Heart rate was monitored using a cardiotachometer (Biotach, Grass Quincy, Mass.) triggered from a lead II electrocardiogram generated by limb leads. All parameters were monitored continuously on a polygraph recorder (model 7D Grass) at a paper speed of 10 mm/min or 25 mm/sec. The right femoral vein was cannulated (PE-240) for drug administration. A control blood sample was collected for hematology analysis on an MCA210 (APTT, PT), K1000 (cell number), and Chrono Log Aggregometer (collagen induced platelet aggregation). Blood samples were also collected immediately after infusion, 30, 60, and 120 minutes post infusion. Samples of blood were retained for blood clearance determination at control, immediately following infusion, 15, 30, 60, 90, and 120 minutes post infusion. Administration of test article was given no earlier than 20 minutes post surgery. The test article was administered as a 10 cc slow infusion over 5 minutes. Images were acquired by a gamma camera over 5 minutes and taken during infusion, 5, 15, 30, 60, 90, 120 minutes post infusion (Digital Dyna Camera, Picker International, Cleveland, Ohio). At the end of the protocol the animal was euthanized with an overdose of pentobarbital and a biodistribution performed. The samples collected for biodistribution (muscle, liver, kidney, bile, spleen, heart, lung thyroid, and urine) and the blood clearance samples were weighed and the amount of activity determined via a gamma well counter (LKB 1282, Wallac Inc).

[1] = at 120 min post-injection, beagle dogs

Substance	route of excretion (anesthetized adult beagle dogs)	clearance from the blood (anesthetized adult beagle dogs, slow i.v. infusion over 5 minutes, blood samples up to 120 minutes post infusion)	portion of the radiopharmaceutical located in the bladder [1]	radiopharmaceutical remaining in the blood, the muscle or other organs [1]	clearance from the blood (dog, in vivo, iv)
[^99mTc (HYNICamide) (tricine) (TPPTS)] [Example 7]	predominantly renal	rapid clearance	vast majority	very little remaining	–
[^99mTc (HYPY) (tricine) (TFP)] [Example 5]	predominantly hepatobiliary	–	–	–	Rapid blood clearance
